According to patent US9670227B2, “Thienopyrimidine derivatives, a process for their preparation and pharmaceutical compositions containing them” (LES LABORATOIRES SERVIER, priority 2013, dated 2017):

Target: Mcl-1 protein (UniProtKB primary accession number: Q07820) (Homo sapiens, UniProt Q07820)
Test: Inhibition of Mcl-1 by fluorescence polarisation, Method 1
Format: binding
Details: fluorescence polarisation test; Method 2 values are underlined in the patent (underlining not visible here); read-out: IC50 (M) Mcl-1 FP
Procedure: The relative binding potency of each compound was determined via Fluorescence Polarisation (FP).
An 11 point serial dilution of each compound was prepared in DMSO and 2 μl transferred into flat bottomed, low binding, 384-well plate (final DMSO concentration 5%). 38 μl of buffer (10 mM 4-(2-hydroxyethyl)-1-piperazineethanesulfonic acid [HEPES], 150 mM NaCl, 0.05% Tween 20, pH 7.4), containing the Fluorescein labelled ligand (final concentration 1 nM) and Mcl-1 protein (final concentration 5 nM) was then added.

Sequence of Mcl-1 protein (Q07820 whole entry): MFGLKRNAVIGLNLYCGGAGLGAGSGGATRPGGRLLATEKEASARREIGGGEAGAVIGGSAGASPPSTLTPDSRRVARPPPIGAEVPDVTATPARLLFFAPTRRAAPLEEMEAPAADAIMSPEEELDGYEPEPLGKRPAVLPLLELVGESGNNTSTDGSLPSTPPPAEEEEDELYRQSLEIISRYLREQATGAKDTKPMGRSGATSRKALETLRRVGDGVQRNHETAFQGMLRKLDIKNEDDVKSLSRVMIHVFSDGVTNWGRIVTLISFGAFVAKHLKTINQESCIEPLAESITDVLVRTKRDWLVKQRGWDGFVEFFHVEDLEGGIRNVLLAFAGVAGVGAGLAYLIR

Structure (SMILES) | IC50 [M]
COc1nccc(COc2ccccc2CC(Oc2ncnc3sc(-c4ccc(F)cc4)c(-c4ccc(OCCN5CCN(C)CC5)c(Cl)c4C)c23)C(=O)O)n1 [Example 54, (2R)-2-{[(5Sa)-5-{3-chloro-2-methyl-4-[2-(4-methylpiperazin-1-yl)ethoxy]phenyl}-6-(4-fluorophenyl)thieno[2,3-d]pyrimidin-4-yl]oxy}-3-{2-[(2-methoxypyrimidin-4-yl)methoxy]phenyl}propanoic acid] | 5.7e-09
Cc1c(-c2c(-c3ccc(F)cc3)sc3ncnc(O[C@H](Cc4ccccc4OCc4ccnn4C)C(=O)O)c23)ccc(OCCN2CCN(C)CC2)c1Cl [Example 69, (2R)-2-{[(5Sa)-5-{3-chloro-2-methyl-4-[2-(4-methylpiperazin-1-yl)ethoxy]phenyl}-6-(4-fluorophenyl)thieno[2,3-d]pyrimidin-4-yl]oxy}-3-{2-[(1-methyl-1H-pyrazol-5-yl)methoxy]phenyl}propanoic acid] | 9.7e-08
Cc1c(-c2c(-c3ccc(F)cc3)sc3ncnc(OC(Cc4ccccc4OCc4ccnn4C(C)C)C(=O)O)c23)ccc(OCCN2CCN(C)CC2)c1Cl [Example 71, (2R)-2-{[(5Sa)-5-{3-chloro-2-methyl-4-[2-(4-methylpiperazin-1-yl)ethoxy]phenyl}-6-(4-fluorophenyl)thieno[2,3-d]pyrimidin-4-yl]oxy}-3-(2-{[1-(propan-2-yl)-1H-pyrazol-5-yl]methoxy}phenyl)propanoic acid] | 9.4e-09
CCn1nccc1COc1ccccc1CC(Oc1ncnc2sc(-c3ccc(F)cc3)c(-c3ccc(OCCN4CCN(C)CC4)c(Cl)c3C)c12)C(=O)O [Example 76, (2R)-2-{[(5Sa)-5-{3-chloro-2-methyl-4-[2-(4-methylpiperazin-1-yl)ethoxy]phenyl}-6-(4-fluorophenyl)thieno[2,3-d]pyrimidin-4-yl]oxy}-3-{2-[(1-ethyl-1H-pyrazol-5-yl)methoxy]phenyl}propanoic acid] | 1.6e-08
Cc1c(-c2c(-c3ccc(F)cc3)sc3ncnc(OC(Cc4ccccc4OCc4ccnn4CC(F)(F)F)C(=O)O)c23)ccc(OCCN2CCN(C)CC2)c1Cl [Example 77, (2R)-2-{[(5Sa)-5-{3-chloro-2-methyl-4-[2-(4-methylpiperazin-1-yl)ethoxy]phenyl}-6-(4-fluorophenyl)thieno[2,3-d]pyrimidin-4-yl]oxy}-3-(2-{[1-(2,2,2-trifluoroethyl)-1H-pyrazol-5-yl]methoxy}phenyl)propanoic acid] | 5.9e-09
Cc1c(-c2c(-c3ccc(F)cc3)sc3ncnc(OC(Cc4ccccc4OCc4cnccn4)C(=O)O)c23)ccc(OCCN2CCN(C)CC2)c1Cl [Example 91, (2R)-2-{[(5Sa)-5-{3-chloro-2-methyl-4-[2-(4-methylpiperazin-1-yl)ethoxy]phenyl}-6-(4-fluorophenyl)thieno[2,3-d]pyrimidin-4-yl]oxy}-3-[2-(pyrazin-2-ylmethoxy)phenyl]propanoic acid] | 7.3e-09
Cc1c(-c2c(-c3ccc(F)cc3)sc3ncnc(OC(Cc4ccccc4OCc4cncn4C)C(=O)O)c23)ccc(OCCN2CCN(C)CC2)c1Cl [Example 92, (2R)-2-{[(5Sa)-5-{3-chloro-2-methyl-4-[2-(4-methylpiperazin-1-yl)ethoxy]phenyl}-6-(4-fluorophenyl)thieno[2,3-d]pyrimidin-4-yl]oxy}-3-{2-[(1-methyl-1H-imidazol-5-yl)methoxy]phenyl}propanoic acid] | 1.2e-08
COc1ncc(Br)c(COc2ccccc2C[C@@H](Oc2ncnc3sc(-c4ccc(F)cc4)c(-c4ccc(OCCN5CCN(C)CC5)c(Cl)c4C)c23)C(=O)O)n1 [Example 99, (2R)-3-{2-[(5-bromo-2-methoxypyrimidin-4-yl)methoxy]phenyl}-2-{[(5Sa)-5-{3-chloro-2-methyl-4-[2-(4-methylpiperazin-1-yl)ethoxy]phenyl}-6-(4-fluorophenyl)thieno[2,3-d]pyrimidin-4-yl]oxy}propanoic acid] | 2e-08
COc1ncc(-c2ccsc2)c(COc2ccccc2CC(Oc2ncnc3sc(-c4ccc(F)cc4)c(-c4ccc(OCCN5CCN(C)CC5)c(Cl)c4C)c23)C(=O)O)n1 [Example 100, (2R)-2-{[(5Sa)-5-{3-chloro-2-methyl-4-[2-(4-methylpiperazin-1-yl)ethoxy]phenyl}-6-(4-fluorophenyl)thieno[2,3-d]pyrimidin-4-yl]oxy}-3-(2-{[2-methoxy-5-(thiophen-3-yl)pyrimidin-4-yl]methoxy}phenyl)propanoic acid] | 1.2e-08
Cc1c(-c2c(-c3ccc(F)cc3)sc3ncnc(OC(Cc4ccccc4OCc4nncn4C)C(=O)O)c23)ccc(OCCN2CCN(C)CC2)c1Cl [Example 102, (2R)-2-{[(5Sa)-5-{3-chloro-2-methyl-4-[2-(4-methylpiperazin-1-yl)ethoxy]phenyl}-6-(4-fluorophenyl)thieno[2,3-d]pyrimidin-4-yl]oxy}-3-{2-[(4-methyl-4H-1,2,4-triazol-3-yl)methoxy]phenyl}propanoic acid] | 9.5e-09

Results, then the compound that gave them:

IC50 [M] | Structure (SMILES)
4.8e-09 | COCCc1nccc(COc2ccccc2CC(Oc2ncnc3sc(-c4ccc(F)cc4)c(-c4ccc(OCCN5CCN(C)CC5)c(Cl)c4C)c23)C(=O)O)n1 [Example 44, (2R)-2-{[(5Sa)-5-{3-chloro-2-methyl-4-[2-(4-methylpiperazin-1-yl)ethoxy]phenyl}-6-(4-fluorophenyl)thieno[2,3-d]pyrimidin-4-yl]oxy}-3-(2-{[2-(2-methoxyethyl)pyrimidin-4-yl]methoxy}phenyl)propanoic acid]
5.6e-09 | Cc1c(-c2c(-c3ccc(F)cc3)sc3ncnc(OC(Cc4ccccc4OCc4ccnc(N5CCOCC5)n4)C(=O)O)c23)ccc(OCCN2CCN(C)CC2)c1Cl [Example 52, (2R)-2-{[(5Sa)-5-{3-chloro-2-methyl-4-[2-(4-methylpiperazin-1-yl)ethoxy]phenyl}-6-(4-fluorophenyl)thieno[2,3-d]pyrimidin-4-yl]oxy}-3-(2-{[2-(morpholin-4-yl)pyrimidin-4-yl]methoxy}phenyl)propanoic acid]
1.6e-09 | Cc1c(-c2c(-c3ccc(F)cc3)sc3ncnc(OC(Cc4ccccc4OCc4ccnn4C(C)(C)C)C(=O)O)c23)ccc(OCCN2CCN(C)CC2)c1Cl [Example 70, (2R)-3-{2-[(1-tert-butyl-1H-pyrazol-5-yl)methoxy]phenyl}-2-{[(5Sa)-5-{3-chloro-2-methyl-4-[2-(4-methylpiperazin-1-yl)ethoxy]phenyl}-6-(4-fluorophenyl)thieno[2,3-d]pyrimidin-4-yl]oxy}propanoic acid]
5.1e-09 | CCCCn1nccc1COc1ccccc1CC(Oc1ncnc2sc(-c3ccc(F)cc3)c(-c3ccc(OCCN4CCN(C)CC4)c(Cl)c3C)c12)C(=O)O [Example 83, (2R)-3-{2-[(1-butyl-1H-pyrazol-5-yl)methoxy]phenyl}-2-{[(5Sa)-5-{3-chloro-2-methyl-4-[2-(4-methylpiperazin-1-yl)ethoxy]phenyl}-6-(4-fluorophenyl)thieno[2,3-d]pyrimidin-4-yl]oxy}propanoic acid]
2.6e-09 | Cc1ccccc1-c1nccc(COc2ccccc2CC(Oc2ncnc3sc(-c4ccc(F)cc4)c(-c4ccc(OCCN5CCN(C)CC5)c(Cl)c4C)c23)C(=O)O)n1 [Example 113, (2R)-2-{[(5Sa)-5-{3-chloro-2-methyl-4-[2-(4-methylpiperazin-1-yl)ethoxy]phenyl}-6-(4-fluorophenyl)thieno[2,3-d]pyrimidin-4-yl]oxy}-3-(2-{[2-(2-methylphenyl)pyrimidin-4-yl]methoxy}phenyl)propanoic acid]
